Laboratory results from ChEMBL document CHEMBL1129898, “An exceptionally potent analog of sandramycin” (Bioorg Med Chem Lett, 1997).
pIC50: −log10 of the molar value.

How the values were obtained:
Type in all cases: functional, cell-based
B16 = assay: The compound was tested in vitro for cytotoxic activity against B-16 cell line (mouse melanoma)
H322 = assay: The compound was tested in vitro for cytotoxic activity against H 322 cell line (human lung adenocarcinoma); details: NCI-H322
HL-60 = assay: The compound was tested in vitro for cytotoxic activity against HL-60 cell line (human promyelomic leukemia)
HT-29 = assay: The compound was tested in vitro for cytotoxic activity against HT-29 cell line (human colon adenocarcinoma)
L1210 = assay: The compound was tested in vitro for cytotoxic activity against L1210 cell line (mouse leukemia)
[1] = The compound was tested in vitro for cytotoxic activity against M24-MET cell line (human metastatic melanoma); details: M24met
MCF7 = assay: The compound was tested in vitro for cytotoxic activity against MCF-7 cell line (human breast carcinoma)
MOLT-4 = assay: The compound was tested in vitro for cytotoxic activity against Molt-4 cell line (human T-cell leukemia)
OVCAR-3 = assay: The compound was tested in vitro for cytotoxic activity against OVCAR-3 cell line (human ovarian carcinoma)
PC-3 = assay: The compound was tested in vitro for cytotoxic activity against PC-3 cell line (human prostate carcinoma)
SK-MEL-28 = assay: The compound was tested in vitro for cytotoxic activity against SK-MEL 28 cell line (human melanoma)
SiHa = assay: The compound was tested in vitro for cytotoxic activity against SIHA cell line (human cervix carcinoma)
BT-549 = assay: The compound was tested in vitro for cytotoxic activity against BT-549 cell line (human breast carcinoma)
[2] = The compound was tested in vitro for cytotoxic activity against UCLA-P3 cell line (human lung adenocarcinoma); details: UCLA P-3
786-0 = assay: The compound was tested in vitro for cytotoxic activity against 786-O cell line (human perirenal carcinoma)

Row | SMILES | pIC50 (B16) | pIC50 (H322) | pIC50 (HL-60) | pIC50 (HT-29) | pIC50 (L1210) | pIC50 [1] | pIC50 (MCF7) | pIC50 (MOLT-4) | pIC50 (OVCAR-3) | pIC50 (PC-3) | pIC50 (SK-MEL-28) | pIC50 (SiHa) | pIC50 (BT-549) | pIC50 [2] | pIC50 (786-0)
1 | CC(C)[C@H]1C(=O)OC[C@@H](NC(=O)c2ccc3ccccc3n2)C(=O)N2CCCC[C@H]2C(=O)NCC(=O)N(C)CC(=O)N(C)[C@@H](C(C)C)C(=O)OC[C@@H](NC(=O)c2ccc3ccccc3n2)C(=O)N2CCCC[C@H]2C(=O)NCC(=O)N(C)CC(=O)N1C | 10.22 | 8.00 | 12.00 | 11.00 | 9.70 | 10.40 | 10.40 | 8.52 | 9.00 | 12.00 | 12.00 | 12.00 | 11.00 | 11.70 | 11.00
2 | CC(C)[C@H]1C(=O)OC[C@@H](NC(=O)c2nc3ccccc3cc2O)C(=O)N2CCCC[C@H]2C(=O)NCC(=O)N(C)CC(=O)N(C)[C@@H](C(C)C)C(=O)OC[C@@H](NC(=O)c2nc3ccccc3cc2O)C(=O)N2CCCC[C@H]2C(=O)NCC(=O)N(C)CC(=O)N1C | 9.40 | 7.70 | 7.10 | 9.00 | 10.70 | 9.40 | 6.52 | 9.15 | 8.40 | 9.70 | 9.00 | 9.52 | 9.00 | 8.00 | 8.10
